Assay: (§1) The drug is tested on Z-019 corresponding to rat gut metagenome with ENA study accession number: PRJEB37062 and ENA sample accession number: ERS12561818 for biotransformation under anaerobic condition. The drug concentrations were measured over 9 timepoints collected between 0 and 24 hours of incubation by liquid-chromatography-coupled mass spectrometry (LC–MS)
Conditions: 2 µM
Note: call rule not given here.

Row | SMILES | Bacterial Biotransformation
1 | C[C@@H](CO)NC(=O)[C@@H]1C=C2c3cccc4[nH]cc(c34)C[C@H]2N(C)C1.O=C(O)/C=C\C(=O)O [ERGONOVINE MALEATE] | Compound NOT metabolized
2 | CC(C)(Oc1ccc(CCNC(=O)c2ccc(Cl)cc2)cc1)C(=O)O [BEZAFIBRATE] | Compound NOT metabolized

Assay: as §1, with “on Z-017” for “on Z-019”, “to mouse” for “to rat”, “number: ERS12561816” for “number: ERS12561818”
Conditions: 2 µM

Row | SMILES | Bacterial Biotransformation
3 | C[C@@H](CO)NC(=O)[C@@H]1C=C2c3cccc4[nH]cc(c34)C[C@H]2N(C)C1.O=C(O)/C=C\C(=O)O [ERGONOVINE MALEATE] | Compound NOT metabolized
4 | CC(C)(Oc1ccc(CCNC(=O)c2ccc(Cl)cc2)cc1)C(=O)O [BEZAFIBRATE] | Compound NOT metabolized

Assay: as §1, with “on Z-016” for “on Z-019”, “to mouse” for “to rat”, “number: ERS12561815” for “number: ERS12561818”
Conditions: 2 µM

Row | SMILES | Bacterial Biotransformation
5 | C[C@@H](CO)NC(=O)[C@@H]1C=C2c3cccc4[nH]cc(c34)C[C@H]2N(C)C1.O=C(O)/C=C\C(=O)O [ERGONOVINE MALEATE] | Compound NOT metabolized
6 | CC(C)(Oc1ccc(CCNC(=O)c2ccc(Cl)cc2)cc1)C(=O)O [BEZAFIBRATE] | Compound metabolized

Assay: as §1, with “Z-014” for “Z-019”, “ERS12561814” for “ERS12561818”
Conditions: 2 µM

Row | SMILES | Bacterial Biotransformation
7 | C[C@@H](CO)NC(=O)[C@@H]1C=C2c3cccc4[nH]cc(c34)C[C@H]2N(C)C1.O=C(O)/C=C\C(=O)O [ERGONOVINE MALEATE] | Compound NOT metabolized
8 | CC(C)(Oc1ccc(CCNC(=O)c2ccc(Cl)cc2)cc1)C(=O)O [BEZAFIBRATE] | Compound NOT metabolized

Assay: as §1, with “on Z-013” for “on Z-019”, “to rabbit” for “to rat”, “number: ERS12561813” for “number: ERS12561818”
Conditions: 2 µM

Row | SMILES | Bacterial Biotransformation
9 | C[C@@H](CO)NC(=O)[C@@H]1C=C2c3cccc4[nH]cc(c34)C[C@H]2N(C)C1.O=C(O)/C=C\C(=O)O [ERGONOVINE MALEATE] | Compound NOT metabolized
10 | CC(C)(Oc1ccc(CCNC(=O)c2ccc(Cl)cc2)cc1)C(=O)O [BEZAFIBRATE] | Compound metabolized

Assay: as §1, with “Z-008” for “Z-019”, “to” for “to rat gut”, “ERS12561808” for “ERS12561818”
Conditions: 2 µM

Row | SMILES | Bacterial Biotransformation
11 | C[C@@H](CO)NC(=O)[C@@H]1C=C2c3cccc4[nH]cc(c34)C[C@H]2N(C)C1.O=C(O)/C=C\C(=O)O [ERGONOVINE MALEATE] | Compound NOT metabolized
12 | CC(C)(Oc1ccc(CCNC(=O)c2ccc(Cl)cc2)cc1)C(=O)O [BEZAFIBRATE] | Compound NOT metabolized

Assay: as §1, with “on WLS-310” for “on Z-019”, “to human” for “to rat”, “number: ERS12561785” for “number: ERS12561818”
Conditions: 2 µM

Row | SMILES | Bacterial Biotransformation
13 | C[C@@H](CO)NC(=O)[C@@H]1C=C2c3cccc4[nH]cc(c34)C[C@H]2N(C)C1.O=C(O)/C=C\C(=O)O [ERGONOVINE MALEATE] | Compound metabolized
14 | CC(C)(Oc1ccc(CCNC(=O)c2ccc(Cl)cc2)cc1)C(=O)O [BEZAFIBRATE] | Compound metabolized

Assay: as §1, with “on WLS-220” for “on Z-019”, “to human” for “to rat”, “number: ERS12561769” for “number: ERS12561818”
Conditions: 2 µM

Row | SMILES | Bacterial Biotransformation
15 | C[C@@H](CO)NC(=O)[C@@H]1C=C2c3cccc4[nH]cc(c34)C[C@H]2N(C)C1.O=C(O)/C=C\C(=O)O [ERGONOVINE MALEATE] | Compound NOT metabolized
16 | CC(C)(Oc1ccc(CCNC(=O)c2ccc(Cl)cc2)cc1)C(=O)O [BEZAFIBRATE] | Compound metabolized

Assay: as §1, with “on WLS-086” for “on Z-019”, “to human” for “to rat”, “number: ERS12561752” for “number: ERS12561818”
Conditions: 2 µM

Row | SMILES | Bacterial Biotransformation
17 | C[C@@H](CO)NC(=O)[C@@H]1C=C2c3cccc4[nH]cc(c34)C[C@H]2N(C)C1.O=C(O)/C=C\C(=O)O [ERGONOVINE MALEATE] | Compound metabolized
18 | CC(C)(Oc1ccc(CCNC(=O)c2ccc(Cl)cc2)cc1)C(=O)O [BEZAFIBRATE] | Compound metabolized

Assay: as §1, with “on WLS-073” for “on Z-019”, “to human” for “to rat”, “number: ERS12561749” for “number: ERS12561818”
Conditions: 2 µM

Row | SMILES | Bacterial Biotransformation
19 | C[C@@H](CO)NC(=O)[C@@H]1C=C2c3cccc4[nH]cc(c34)C[C@H]2N(C)C1.O=C(O)/C=C\C(=O)O [ERGONOVINE MALEATE] | Compound metabolized
20 | CC(C)(Oc1ccc(CCNC(=O)c2ccc(Cl)cc2)cc1)C(=O)O [BEZAFIBRATE] | Compound metabolized

Assay: as §1, with “on WLS-038” for “on Z-019”, “to human” for “to rat”, “number: ERS12561745” for “number: ERS12561818”
Conditions: 2 µM

Row | SMILES | Bacterial Biotransformation
21 | C[C@@H](CO)NC(=O)[C@@H]1C=C2c3cccc4[nH]cc(c34)C[C@H]2N(C)C1.O=C(O)/C=C\C(=O)O [ERGONOVINE MALEATE] | Compound metabolized
22 | CC(C)(Oc1ccc(CCNC(=O)c2ccc(Cl)cc2)cc1)C(=O)O [BEZAFIBRATE] | Compound metabolized

Assay: as §1, with “on WLS-007” for “on Z-019”, “to human” for “to rat”, “number: ERS12561742” for “number: ERS12561818”
Conditions: 2 µM

Row | SMILES | Bacterial Biotransformation
23 | C[C@@H](CO)NC(=O)[C@@H]1C=C2c3cccc4[nH]cc(c34)C[C@H]2N(C)C1.O=C(O)/C=C\C(=O)O [ERGONOVINE MALEATE] | Compound NOT metabolized
24 | CC(C)(Oc1ccc(CCNC(=O)c2ccc(Cl)cc2)cc1)C(=O)O [BEZAFIBRATE] | Compound metabolized

Conditions: human gut metagenome, 24 h, 2 µM

Row | SMILES | Bacterial Biotransformation
25 | C[C@@H](CO)NC(=O)[C@@H]1C=C2c3cccc4[nH]cc(c34)C[C@H]2N(C)C1.O=C(O)/C=C\C(=O)O [ERGONOVINE MALEATE] | Compound metabolized
26 | CC(C)(Oc1ccc(CCNC(=O)c2ccc(Cl)cc2)cc1)C(=O)O [BEZAFIBRATE] | Compound NOT metabolized

Conditions: human gut metagenome, 24 h, 2 µM
Remark: another data set of the same source

Row | SMILES | Bacterial Biotransformation
27 | C[C@@H](CO)NC(=O)[C@@H]1C=C2c3cccc4[nH]cc(c34)C[C@H]2N(C)C1.O=C(O)/C=C\C(=O)O [ERGONOVINE MALEATE] | Compound metabolized
28 | CC(C)(Oc1ccc(CCNC(=O)c2ccc(Cl)cc2)cc1)C(=O)O [BEZAFIBRATE] | Compound metabolized

Conditions: human gut metagenome, 24 h, 2 µM
Remark: another data set of the same source

Row | SMILES | Bacterial Biotransformation
29 | C[C@@H](CO)NC(=O)[C@@H]1C=C2c3cccc4[nH]cc(c34)C[C@H]2N(C)C1.O=C(O)/C=C\C(=O)O [ERGONOVINE MALEATE] | Compound metabolized
30 | CC(C)(Oc1ccc(CCNC(=O)c2ccc(Cl)cc2)cc1)C(=O)O [BEZAFIBRATE] | Compound metabolized

Conditions: human gut metagenome, 24 h, 2 µM
Remark: another data set of the same source

Row | SMILES | Bacterial Biotransformation
31 | C[C@@H](CO)NC(=O)[C@@H]1C=C2c3cccc4[nH]cc(c34)C[C@H]2N(C)C1.O=C(O)/C=C\C(=O)O [ERGONOVINE MALEATE] | Compound NOT metabolized
32 | CC(C)(Oc1ccc(CCNC(=O)c2ccc(Cl)cc2)cc1)C(=O)O [BEZAFIBRATE] | Compound NOT metabolized

Conditions: human gut metagenome, 24 h, 2 µM
Remark: another data set of the same source

Row | SMILES | Bacterial Biotransformation
33 | C[C@@H](CO)NC(=O)[C@@H]1C=C2c3cccc4[nH]cc(c34)C[C@H]2N(C)C1.O=C(O)/C=C\C(=O)O [ERGONOVINE MALEATE] | Compound metabolized
34 | CC(C)(Oc1ccc(CCNC(=O)c2ccc(Cl)cc2)cc1)C(=O)O [BEZAFIBRATE] | Compound NOT metabolized

Conditions: human gut metagenome, 24 h, 2 µM
Remark: another data set of the same source

Row | SMILES | Bacterial Biotransformation
35 | C[C@@H](CO)NC(=O)[C@@H]1C=C2c3cccc4[nH]cc(c34)C[C@H]2N(C)C1.O=C(O)/C=C\C(=O)O [ERGONOVINE MALEATE] | Compound NOT metabolized
36 | CC(C)(Oc1ccc(CCNC(=O)c2ccc(Cl)cc2)cc1)C(=O)O [BEZAFIBRATE] | Compound metabolized

Conditions: human gut metagenome, 24 h, 2 µM
Remark: another data set of the same source

Row | SMILES | Bacterial Biotransformation
37 | C[C@@H](CO)NC(=O)[C@@H]1C=C2c3cccc4[nH]cc(c34)C[C@H]2N(C)C1.O=C(O)/C=C\C(=O)O [ERGONOVINE MALEATE] | Compound metabolized
38 | CC(C)(Oc1ccc(CCNC(=O)c2ccc(Cl)cc2)cc1)C(=O)O [BEZAFIBRATE] | Compound metabolized

Conditions: human gut metagenome, 24 h, 2 µM
Remark: another data set of the same source

Row | SMILES | Bacterial Biotransformation
39 | C[C@@H](CO)NC(=O)[C@@H]1C=C2c3cccc4[nH]cc(c34)C[C@H]2N(C)C1.O=C(O)/C=C\C(=O)O [ERGONOVINE MALEATE] | Compound NOT metabolized
40 | CC(C)(Oc1ccc(CCNC(=O)c2ccc(Cl)cc2)cc1)C(=O)O [BEZAFIBRATE] | Compound metabolized

Reference: ChEMBL document CHEMBL5724914, “Linking interpersonal differences in gut microbiota composition and drug biotransformation activity” (2024)
